How the values were obtained:
Format in all cases: cell-based
Conditions in all cases: human fibroblast culture, radioactive labelling
[1] = tested on: human dermal fibroblasts; experiment: Leucine incorporation (protein synthesis) in human fibroblast cultures
Description: (§1) In another embodiment of the invention the CSBP obtained in the present example was characterised by its efficiency in stimulating the fundamental metabolism of human dermal fibroblasts, more particularly by incorporation of various markers such as thymidine (cell growth), leucine (protein synthesis) and glucosamine (synthesis of GAG).
(§2) Tests in vitro on human fibroblast cultures are a means of evaluating the capacity of CSBP to stimulate the fundamental metabolism of the extracellular matrix of the cutis. Under conventional conditions of cultivation in triplicate, the CSBP according to the invention and positive references (EGF, epidermis growth factor at 10 ng/ml, TGF-β human transformation factor b at 10 ng/ml and vitamin C at 20 mg/ml) were placed in contact with fibroblasts. The neosynthesis can be quantified by radioactive labelling of the specific metabolites (amino acids). Two concentrations of CSBP were tested: 2 and 0.4 mg/ml. The results obtained in the following table were subjected to the Dunnett test:
(§3) The culture conditions were as follows:
(§4) Culture medium MEM/M199: sodium bicarbonate 1.87 mg/ml, L-glutamine 2 mM, penicillin 50 IU/ml and foetal calf serum 10%.

[2] = tested on: human dermal fibroblasts; experiment: Thymidine incorporation (cell growth) in human fibroblast cultures
Description: as §1, §2, §3, §4

[3] = tested on: human dermal fibroblasts; experiment: Glucosamine incorporation (synthesis of GAG) in human fibroblast cultures
Description: as §1, §2, §3, §4

**Q.** With `O=C1O[C@H]([C@@H](O)CO)C(O)=C1O` [VIT C, vitamin C, reference compound] as the molecule, how does the “% Leucine” value ([1]; positive reference vitamin C) read?
**A.** The value was “VIT C: 45%”.

**Q.** “EGF: epidermis growth factor, positive reference (NSDSECPLSHDGYCLHDGVCMYIEALDKYACNCVVGYIGERCQYRDLKWWELR; Epidermal growth factor; UniProt P01133 971-1023, looked up) [reference compound]” was tested. Which “% Thymidine” value ([2]; positive reference EGF at 10 ng/ml) did it give?
**A.** Its value is “EGF: 100%”.

**Q.** “low molecular weight chondroitin sulphate [CSBP]” was tested. Which “% Leucine” value ([1]; CSBP 0.4 mg/ml) did it give?
**A.** The value was 44 p < 0.05%.

**Q.** And the “% Leucine” value ([1]; CSBP 2.0 mg/ml)?
**A.** Its value is 88 p < 0.01%.

**Q.** And the “% Glucosamine” value ([3]; CSBP 0.4 mg/ml)?
**A.** The value was 57 p < 0.01%.

**Q.** What about the “% Glucosamine” value ([3]; CSBP 2.0 mg/ml) of the same molecule?
**A.** Its value is 178 p < 0.01%.

**Q.** And the “% Thymidine” value ([2]; CSBP 0.4 mg/ml)?
**A.** Its value is 74 p < 0.01%.

**Q.** What about the “% Thymidine” value ([2]; CSBP 2.0 mg/ml) of the same molecule?
**A.** Its value is 183 p < 0.01%.

— US20030032620A1, “Low molecular weight chondroitin sulphate compound having cosmetic activity” (priority 2001, published 2003)
